Where “and” joins values, the source holds several entries; their conditions need not be identical. Equal values may be shown once.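 Protocol summary: plate cells (96-well), add compound at 5 concentrations, incubate 48 h, interpolate endpoints linearly. The concentration for 50% growth inhibition is given as GI50. TGI: total growth inhibition.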
Assays:
Assay in all cases: NCI anticancer screen, dose series, 48 h
SF-268 CNS = test system: SF-268 CNS
MCF7 breast = test system: MCF7 breast
M14 melanoma = test system: M14 melanoma
MDA-MB-231 breast = test system: MDA-MB-231 breast
UACC-257 melanoma = test system: UACC-257 melanoma
OVCAR-8 ovarian = test system: OVCAR-8 ovarian
SF-539 CNS = test system: SF-539 CNS
K-562 leukemia = test system: K-562 leukemia
HT29 colon = test system: HT29 colon
EKVX NSCLC = test system: EKVX NSCLC

Row | Structure (SMILES) | GI50 (SF-268 CNS) [nM] | TGI (SF-268 CNS) | GI50 (MCF7 breast) [nM] | TGI (MCF7 breast) [µM] | GI50 (M14 melanoma) [nM] | TGI (M14 melanoma) [µM] | GI50 (MDA-MB-231 breast) [nM] | TGI (MDA-MB-231 breast) [µM] | GI50 (UACC-257 melanoma) [nM] | TGI (UACC-257 melanoma) | GI50 (OVCAR-8 ovarian) [nM] | TGI (OVCAR-8 ovarian) [µM] | GI50 (SF-539 CNS) [nM] | TGI (SF-539 CNS) | GI50 (K-562 leukemia) [nM] | TGI (K-562 leukemia) [µM] | GI50 (HT29 colon) [nM] | TGI (HT29 colon) | GI50 (EKVX NSCLC) [nM] | TGI (EKVX NSCLC)
1 | COc1ccc(-c2nn(-c3cccc(Cl)c3)cc2C=C(C#N)C#N)cc1 | 2500 | 9.14 µM | 2350 | 7.72 | 2390 | 6.92 | 2030 | 5.14 | 1820 | 5.27 µM | 2200 | 5.77 | 2300 | 5.44 µM | 2010 | 10.4 | 2480 | 5.56 µM |  | 
2 | CN(C)CCCNc1nn2c(=O)c3ccccc3nc2c2ccccc12 | 7250 | 37.9 µM | 3430 | 15.6 | 11800 | 24.5 | 8020 | 28.1 | 16000 | 32.6 µM | 7080 | 40.7 | 3950 | 15.4 µM | 9940 | 31.8 | 3460 | 14.7 µM | 14400 | 51.1 µM
3 | COc1ccc(-c2ccc3c(NC(=O)C4CC4)n[nH]c3n2)cc1 | 11500 | > 25 µM | > 25000 | > 25 | > 25000 | > 25 | > 25000 | > 25 | > 25000 | > 25 µM | 11700 | > 25 | > 25000 | > 25 µM | > 25000 | > 25 | > 25000 | > 25 µM | > 25000 | > 25 µM
4 | S=c1nc[nH]c2c1ncn2Cc1ccco1 |  | > 100 µM |  | > 100 |  | > 100 |  | > 100 |  | > 100 µM |  | > 100 |  | > 100 µM |  | > 100 |  | > 100 µM |  | > 100 µM
5 | CCSc1oc(-c2ccccc2)nc1[P+](c1ccccc1)(c1ccccc1)c1ccccc1 | 331 | 4.02 µM | 246 | 1.28 | 334 | 1.84 | 266 | 1.08 | 309 | 1.28 µM | 275 | 12.3 | 376 | 2.85 µM | 152 | 3.45 | 238 | 2.33 µM | 289 | 1.84 µM
6 | S=c1nc(-c2nc(=S)[nH]c3c2CCCCCCCCCC3)c2c([nH]1)CCCCCCCCCC2 |  | > 100 µM |  | > 100 |  | > 100 |  | > 100 |  | > 100 µM |  | > 100 |  | > 100 µM |  | > 100 |  | > 100 µM |  | > 100 µM
7 | C/C1=C\[C@H](C)C[C@H](C)OC(=O)C[C@H](c2ccc(O)cc2)NC(=O)[C@@H](Cc2c(Br)[nH]c3ccccc23)N(C)C(=O)[C@H](C)NC(=O)[C@@H](C)C1 | 35.2 | 0.443 µM and 0.166 µM | 208 | > 100 | 45.6 |  |  | 0.0741 | 74.7 | 0.37 µM and 1.15 µM | 51.6 | 0.568 | 238 | 0.622 µM and 0.0655 µM | 229 | > 49.8 | 21.6 | 0.897 µM and 8.94 µM | 132 | 0.746 µM and 1.83 µM
8 | O=C1c2ccccc2C(=O)c2c(NCCCNCCO)ccc(NCCCNCCO)c21 |  | 17.9 µM |  | 10.8 |  | 25.5 |  | 24.2 |  | 46.8 µM |  | 31 |  | 15.3 µM |  | 13.9 |  | 15.9 µM |  | 26.3 µM
